Assay results reported in patent US20070275854A1, “Agrochemical Composition Containing Phosphoric Acid Ester” (priority 2004, published 2007).

What was measured:
Assay type in all cases: in vivo
[1] = test system: Avena fatura L. (AVEFA); experiment: Glasshouse herbicide efficacy of clodinafop propargyl (Topic 240) with adjuvants, fresh weight after 21 days; settings: clodinafop propargyl 5 g a.i./ha (Topic 240 in water), adjuvant where named 0.25% w/v, plants in 2-3-leaf stage, untreated 17.48 g
Method: Test formulations are prepared by mixing the commercially available formulation Topic 240, which contains 240 g of clodinafop propargyl per liter of formulation, as stated by the manufacturer (Syngenta), with water. The adjuvants are added to this emulsion in an amount corresponding to a concentration of 0.25% w/v (2.5 g/l). These test solutions are applied in various concentrations (concentration stated in g a.i/ha, where a.i. means active ingredient) to the plant species Avena fatura L. (AVEFA) while they are in the 2-3-leaf stage in a glasshouse as shown in the following table.
After 21 days, the efficacy of the herbicidal formulation is assessed by weighing the plant parts which are still present (fresh weight).

[2] = test system: Solanum Nigrum L. (SOLNI); experiment: Glasshouse herbicide efficacy of imazethapyrammonium with adjuvants, fresh weight after 14 days; settings: imazethapyrammonium 4.0 g ae/ha, adjuvant where named 0.25% w/v, plants in 2-3-leaf stage, untreated 15.42 g
Method: (§1) Test formulations are prepared by adjusting an aqueous solution of imazethapyrammonium to a concentration of 5 mmol. The adjuvants are added to this solution in an amount corresponding to a concentration of 0.25% w/v (2.5 g/l). These test solutions are applied in various concentrations (concentration stated g ae/ha, where ae means acidic equivalent) to the plant species Solanum Nigrum L. (SOLNI) and Lolium perenne L. (LOLPE) while they are in the 2-3-leaf stage in a glasshouse as shown in the following table.
(§2) After 14 days, the efficacy of the herbicidal formulation is assessed by weighing the plant parts still present (fresh weight).

[3] = test system: Lolium perenne L. (LOLPE); experiment: as above; settings: imazethapyrammonium 4.0 g ae/ha, adjuvant where named 0.25% w/v, plants in 2-3-leaf stage, untreated 13.97 g
Method: as §1, §2

Compound | fresh weight [g] AVEFA [1] [g] | fresh weight [g] SOLNI [2] [g] | fresh weight [g] LOLPE [3] [g]
C#CCOC(=O)[C@@H](C)Oc1ccc(Oc2ncc(Cl)cc2F)cc1 [Clodinafop propargyl, clodinafop propargyl] | 15.69 | – | –
CCc1cnc(C2=NC(C)(C(C)C)C(=O)N2)c(C(=O)O)c1.N (stereo not drawn) [Imazethapyrammonium, imazethapyrammonium] | – | 10.61 | 13.40
